Source: patent US20020119438A1, “METHOD FOR D[…] CELL COUNT” (priority 1995, published 2002)
Converted amounts (≈) assume the structure as drawn.

Columns and labels:
[1] = tested on: MOLT-4 cells; experiment: Cytotoxicity assessment by method of the present invention (PO-PRO-1 Iodide fluorescence before/after Triton X-100); type: cell-based, human; conditions: two days incubation, from viable cell numbers
[2] = tested on: MOLT-4 cells; experiment: Cytotoxicity assessment by MTT assay system; type: cell-based, human; conditions: two days incubation

In the case of `CO[C@@]12[C@H](COC(N)=O)C3=C(C(=O)C(C)=C(N)C3=O)N1C[C@@H]1N[C@@H]12` [Mitomycin C], the IC50 [1] is reported as 2.2 µg/mL (≈ 6.58 µM) and the IC50 [2] is reported as 5.5 µg/mL (≈ 16.5 µM).
